Experimental data: patent US11415579B2, “Assay for measuring a rate of reaction between a target and a ligand candidate” (Imperial College Innovations Ltd., priority 2016, dated 2022)

What was measured:
Cdk2[C177A, F80C, K278C] = target: T1, Cdk2[C177A, F80C, K278C] (Homo sapiens, UniProt P24941, C177A/F80C/K278C); assay: Kinetic thiol consumption assay with mutant Cdk2 as model thiol; format: binding; set-up: unit not given here; conditions: 500 μM ligand, 5 μM thiol, phosphate buffer pH 8
T1 construct: poly-histidine; made in house; host or cells: E. coli
Procedure, shortened: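 First-order rate constants were derived by exponential-decay fitting of DMSO/thiol-normalized fluorescence (380/470 nm) over time at room temperature. Thiol was 5 μM E. coli-expressed His-tagged Cdk2 mutant C177A/F80C/K278C in degassed pH 8 phosphate buffer containing 2% v/v TCEP beads.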

Cdk2(S181C) (C177A) = target: T2, Cdk2(S181C) (C177A) (Homo sapiens, UniProt P24941, C177A/S181C); assay: Kinetic thiol consumption assay with Cdk2 mutant S181C; format: binding; set-up: key to Rate enhancement, Cdk2 S181C: rate constant with Cdk2 ÷ rate constant with model thiol (fold); conditions: additional mutation C177A; for Rate constant with Cdk2 S181C: Protein: Cdk2, cysteine position S181C, in h^-1
T2 construct: poly-histidine; made in house; host or cells: E. coli
Procedure, shortened: (§1)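 Read-out is fluorescence at 380/470 nm, taken after 1 h at room temperature and normalized to a DMSO/thiol-only control over time. Thiol (5 μM Cdk2 mutant or model thiol) was in degassed pH 8 phosphate buffer with 2% v/v TCEP beads. Acrylamide rate constants for Cdk2 were divided by those with model thiol.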

[1] = target: T3, human cyclin-dependent kinase 2 (Cdk2) (Homo sapiens, UniProt P24941); assay: Kinetic thiol consumption assay with wild type Cdk2 (C177); format: binding; set-up: key to Rate enhancement, Cdk2 WT: k(Cdk2) divided by k(model thiol); Rate constant with Cdk2 (k(Cdk2)): unit not given here; conditions: for Rate constant with Cdk2 (k(Cdk2)): 500 μM ligand, 5 μM thiol, phosphate buffer pH 8; for Rate enhancement, Cdk2 WT: no additional mutations; for Rate constant with Cdk2 WT: Protein: Cdk2, cysteine position WT, in h^-1; for k(Cdk2)/k(Cdk2_mut) rate enhancement: model thiol Cdk2[C177A, F80C, K278C]; for k(Cdk2)/k(GSH) rate enhancement: model thiol glutathione
T3 construct: poly-histidine; made in house; host or cells: E. coli
Procedure, shortened: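 His-tagged human Cdk2 from E. coli (sole surface cysteine C177) or a model thiol, each 5 μM in degassed phosphate buffer pH 8 with immobilized TCEP, reacted with acrylamides at room temperature. Fluorescence (ex 380/em 470) normalized to DMSO/thiol control over time; first-order rate constants, Cdk2 rate divided by model-thiol rate.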

Cdk2(N272C) (C177A) = target: T4, Cdk2(N272C) (C177A) (Homo sapiens, UniProt P24941, C177A/N272C); assay: Kinetic thiol consumption assay with Cdk2 mutant N272C; format: binding; set-up: key to Rate enhancement, Cdk2 N272: rate constant with Cdk2 ÷ rate constant with model thiol (fold); conditions: for Rate enhancement, Cdk2 N272: Cdk2 N272, additional mutation C177A; for Rate constant with Cdk2 N272C: Protein: Cdk2, cysteine position N272C, additional mutation C177A, in h^-1
T4 construct: poly-histidine; made in house; host or cells: E. coli
Procedure, shortened: as §1

Cdk2(T182C) (C177A) = target: T5, Cdk2(T182C) (C177A) (Homo sapiens, UniProt P24941, C177A/T182C); assay: Kinetic thiol consumption assay with Cdk2 mutant T182C; format: binding; set-up: key to Rate enhancement, Cdk2 T182C: rate constant with Cdk2 ÷ rate constant with model thiol (fold); conditions: additional mutation C177A; for Rate constant with Cdk2 T182C: Protein: Cdk2, cysteine position T182C, in h^-1
T5 construct: poly-histidine; made in house; host or cells: E. coli
Procedure, shortened: as §1

Cdk2(H71C) (C177A) = target: T6, Cdk2(H71C) (C177A) (Homo sapiens, UniProt P24941, C177A/H71C); assay: Kinetic thiol consumption assay with Cdk2 mutant H71C; format: binding; set-up: key to Rate enhancement, Cdk2 H71C: rate constant with Cdk2 ÷ rate constant with model thiol (fold); conditions: additional mutation C177A; for Rate constant with Cdk2 H71C: Protein: Cdk2, cysteine position H71C, in h^-1
T6 construct: poly-histidine; made in house; host or cells: E. coli
Procedure, shortened: as §1

Cdk2(S276C) (C177A) = target: T7, Cdk2(S276C) (C177A) (Homo sapiens, UniProt P24941, C177A/S276C); assay: Kinetic thiol consumption assay with Cdk2 mutant S276C; format: binding; set-up: key to Rate enhancement, Cdk2 S276C: rate constant with Cdk2 ÷ rate constant with model thiol (fold); conditions: additional mutation C177A; for Rate constant with Cdk2 S276C: Protein: Cdk2, cysteine position S276C, in h^-1
T7 construct: poly-histidine; made in house; host or cells: E. coli
Procedure, shortened: as §1

[2] = Kinetic thiol consumption assay with model thiol glutathione; format: physicochemical; set-up: Rate constant with glutathione (k(GSH)): unit not given here; conditions: for Rate constant with glutathione (k(GSH)): 500 μM ligand, 5 μM thiol, phosphate buffer pH 8; for Rate constant with Glutathione: Protein: Glutathione, cysteine position NA, in h-1
Procedure, shortened: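 Rate constants for acrylamide reaction with 5 μM glutathione come from first-order exponential fits of normalized fluorescence decay (ex 380, em 470 nm). Reactions run in degassed phosphate buffer at pH 8 containing TCEP beads, room temperature.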

Cdk2(R122C) (C177A) = target: T8, Cdk2(R122C) (C177A) (Homo sapiens, UniProt P24941, C177A/R122C); assay: Kinetic thiol consumption assay with Cdk2 mutant R122C; format: binding; set-up: key to Rate enhancement, Cdk2 R122C: rate constant with Cdk2 ÷ rate constant with model thiol (fold); conditions: additional mutation C177A; for Rate constant with Cdk2 R122C: Protein: Cdk2, cysteine position R122C, in h-1
T8 construct: poly-histidine; made in house; host or cells: E. coli
Procedure, shortened: as §1

Cdk2(C177A, F80C) = target: T9, Cdk2(C177A, F80C) (Homo sapiens, UniProt P24941, C177A/F80C); assay: Kinetic thiol consumption assay with Cdk2 mutant F80C, incl. kobs versus concentration (Kd, k2); format: binding; set-up: key to Rate enhancement, Cdk2 F80C: Cdk2 rate constant divided by model-thiol rate constant; conditions: additional mutation C177A; for Rate constant with Cdk2 F80C: Protein: Cdk2, cysteine position F80C, in h^-1
T9 construct: poly-histidine; made in house; host or cells: E. coli
Procedure, shortened: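 His-tagged Cdk2(C177A/F80C) from E. coli or model thiol, 5 μM in degassed phosphate buffer pH 8 with TCEP beads, reacted with acrylamide ligands; fluorescence (ex/em 380/470 nm) normalized to DMSO control and fitted to first-order decay for kobs. Kd and k2 obtained from hyperbolic fit of kobs versus ligand concentration.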

| Compound | Rate constant with Cdk2[C177A, F80C, K278C] (k(Cdk2_mut)) (Cdk2[C177A, F80C, K278C]) | Rate enhancement, Cdk2 S181C (Cdk2(S181C) (C177A)) | Rate constant with Cdk2 S181C (Cdk2(S181C) (C177A)) | Rate constant with Cdk2 (k(Cdk2)) [1] | Rate enhancement, Cdk2 WT [1] | Rate constant with Cdk2 WT [1] | k(Cdk2)/k(Cdk2_mut) rate enhancement [1] | k(Cdk2)/k(GSH) rate enhancement [1] | Rate enhancement, Cdk2 N272 (Cdk2(N272C) (C177A)) | Rate constant with Cdk2 N272C (Cdk2(N272C) (C177A)) | Rate enhancement, Cdk2 T182C (Cdk2(T182C) (C177A)) | Rate constant with Cdk2 T182C (Cdk2(T182C) (C177A)) | Rate enhancement, Cdk2 H71C (Cdk2(H71C) (C177A)) | Rate constant with Cdk2 H71C (Cdk2(H71C) (C177A)) | Rate enhancement, Cdk2 S276C (Cdk2(S276C) (C177A)) | Rate constant with Cdk2 S276C (Cdk2(S276C) (C177A)) | Rate constant with glutathione (k(GSH)) [2] | Rate constant with Glutathione [2] | Rate enhancement, Cdk2 R122C (Cdk2(R122C) (C177A)) | Rate constant with Cdk2 R122C (Cdk2(R122C) (C177A)) | other results |
| --- | --- | --- | --- | --- | --- | --- | --- | --- | --- | --- | --- | --- | --- | --- | --- | --- | --- | --- | --- | --- | --- |
| C=CC(=O)Nc1cccc2ncccc12 [CA-012] | 0.4157 | 2.504 | 0.1301 | 0.09635 | 1.855 | 0.09635 | 0.2318 | 1.877 | 0.4189 | 0.02176 | 5.8 | 0.3013 | 0.317 | 0.01647 | 0.9852 | 0.05118 | 0.05132 | 0.05195 | 0.6897 | 0.03583 | Rate enhancement, Cdk2 F80C (Cdk2(C177A, F80C)): 3.888; Rate constant with Cdk2 F80C (Cdk2(C177A, F80C)): 0.202 |
| C=CC(=O)Nc1ccc(C(=O)OC)cc1 [CA-028] | 0.3138 | 0.5066 | 0.03097 | 0.1733 | 2.835 | 0.1733 | 0.5523 | 2.895 | 0.7612 | 0.04653 | 5.246 | 0.3207 | 1.035 | 0.06327 | 1.04 | 0.06356 | 0.05986 | 0.06113 | 0.3475 | 0.02124 | Rate enhancement, Cdk2 F80C (Cdk2(C177A, F80C)): 1.175; Rate constant with Cdk2 F80C (Cdk2(C177A, F80C)): 0.07185 |
| C=CC(=O)N1CCN(C(=O)OC(C)(C)C)CC1 [CA-029] | 0.00615 | 0.3298 | 0.006959 | 0.00892 | 0.4226 | 0.008917 | 1.45 | 0.5196 | 0.2719 | 0.005738 | 1.766 | 0.03726 | 0.1266 | 0.002672 | 0.3272 | 0.006904 | 0.01716 | 0.0211 | 0.2033 | 0.004289 | Rate enhancement, Cdk2 F80C (Cdk2(C177A, F80C)): 0.1236; Rate constant with Cdk2 F80C (Cdk2(C177A, F80C)): 0.002607 |
